These results are taken from patent publication US20240043470A1, “MACROCYCLIC COMPOUNDS AS PROTEASOME INHIBITORS” (CORNELL UNIVERSITY, priority 2017, published 2024).

Assay [1] concerns the target β5c of hu c-20S (Homo sapiens (Human), UniProt P20618+P28074). As to the kind of experiment: IC50 determination against β5c of human constitutive proteasome (suc-LLVY-AMC hydrolysis).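 Further: IC50 obtained by fitting initial reaction velocities to a dose-dependent inhibition model, with SDS present as proteasome activator.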 The settings on record: 0.2 nM c-20S, 25 μM suc-LLVY-AMC. The format is biochemical.
In assay [2] the test system is IL-6 in LPS-stimulated human macrophages. In words: Inhibition of IL-6 in LPS-stimulated human macrophages (Q-PCR and ELISA). The format is cell-based. As to conditions: LPS 50 ng/ml; 6 h gene expression (FIG. 1A), 24 h ELISA (FIG. 1B); compound added 15 minutes before LPS. As to the method: Monocytes were isolated from the blood of 2 healthy donors using CD14 magnetic beads and cultured with 20 ng/ml of MCSF for 24 hours to induce the differentiation into macrophages. 200,000 cells/wells in 96 wells plate were incubated with LPS (50 ng/ml) for 6 hours for RNA isolation and gene expression analysis (FIG. 1A) and 24 hours for ELISA (FIG. 1B). The proteasome inhibitor 4-13 used at the indicated concentration was added 15 minutes before adding LPS. At 6 hours, RNA were prepared using Qiagen RNA plus kit and cDNA were synthetized using the Thermofisher cDNA synthesis kit (FIG. 1A). Q-PCR was performed in duplicate and expression levels normalized to the level of the housekeeping gene ubiquitin. At 24 hours, supernatants were collected and IL-6 production quantified by ELISA (FIG. 1B).

Assay [3] concerns the target β5i of hu i-20S (Homo sapiens (Human), UniProt P20618+P28062). In words: IC50 determination against β5i of human immunoproteasome (Ac-ANW-AMC hydrolysis).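 Further: enzyme activity taken as the initial reaction velocity per well, with SDS added to activate the proteasome.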 As to conditions: β5i, 0.4 nM i-20S, 15 μM Ac-ANW-AMC. The format is biochemical.

As usually defined, the IC50 is the midpoint of a concentration-inhibition curve. Low values mean greater potency, high ones weaker potency. Consider `O=C1CCCCCCCCCC[C@@H](C(=O)NCc2ccccc2F)NC(=O)[C@H](CC(=O)N2CCCC2C2CC2)N1` (stereo partly drawn) [Compound 4-13], for which the figures for the IC50 in assay [1] and in assay [3] were 0.274 µM and 0.018 µM, respectively. Besides, the “Inhibition of IL-6 in LPS-stimulated human macrophages” value in assay [2] is reported as “inhibition of IL-6”.
